# Assay results from patent US4442118A, “Aldose reductase inhibition by 1-(4-chlorobenzoyl)-5-methoxy-2-methyl-1H-indole-3-acetic acid” (Ayerst, McKenna & Harrison, Inc., priority 1981, dated 1984).
# Molecular target: lens aldose reductase (Bos taurus, UniProt P16116)
# Test: in vitro aldose reductase inhibition test (modified Hayman and Kinoshita procedure)
# Type: biochemical, bovine
# Experimental: In the present case the procedure of Hayman and Kinoshita is modified in that the final chromatography step is omitted in the preparation of the enzyme from bovine lens.
# The following results were obtained when indomethacin was evaluated in the above in vitro test: […]
structure (smiles),measurement,value
"COc1ccc2c(c1)c(CC(=O)O)c(C)n2C(=O)c1ccc(Cl)cc1 [Indomethacin, 1-(4-Chlorobenzoyl)-5-methoxy-2-methyl-1H-indole-3-acetic acid]",inhibitor of lens aldose reductase (in words),potent inhibitor of lens aldose reductase
